From US10973863B2, “Method for regulating, preventing and/or treating pulmonary injury” (SINPHAR PHARMACEUTICAL CO., LTD., priority 2017, dated 2021)

Tested on: MMP-12
Assay: Western blot: MMP-12 expression in LPS-treated NR8383 cells
Type: cell-based, rat
Conditions: 0.01 μg/mL LPS; 6.25 to 50 μg/mL; 24 hours
Method: Rat alveolar macrophage NR8383 cells were divided into six groups and separately cultivated with the following media for 24 hours: • (1) Control group: a macrophage growth medium containing 0.01 μg/mL LPS; • (2) Positive control group: a macrophage growth medium containing 0.01 μg/mL LPS and 1 μM Dex; and • (3) Extract A group (including four sub-groups): a macrophage growth medium containing 0.01 μg/mL LPS and the extract A provided by [preparation example A-2-2], wherein the extract A is present in the four sub-groups at a concentration of 6.25, 12.5, 25 and 50 μg/mL respectively.
Thereafter, the proteins in the cells of each group were extracted and then subjected to a Western blot to measure the expression level of pro-form MMP-9 (i.e., the zymogen form of MMP-9), active-form MMP-9 and MMP-12. The relative expression level of pro-form MMP-9, active-form MMP-9 and MMP-12 of each group was calculated by using the results of the control group as a basis (i.e., the expression level of control group was served as 1-fold).
Rat alveolar macrophage NR8383 cells were divided into ten groups and separately cultivated with the following media for 24 hours:
(1) Control group: a macrophage growth medium containing 0.01 μg/mL LPS;
(2) Positive control group: a macrophage growth medium containing 0.01 μg/mL LPS and 1 μM Dex; […]

**Q.** `C=C(CC[C@@H](C(=O)O)[C@H]1[C@H](O)C[C@@]2(C)C3=CC[C@@H](C(=C)C)[C@](C)(CCC(=O)O)C3=CC[C@]12C)C(C)C` [PAA, poricoic acid A] was tested. Which “Expression level of MMP-12 (in words)” value did it give?
**A.** Its value is “effective in inhibiting”.
